In PMC8829087 (The Journal of Biological Chemistry, 2021):

How the values were obtained:
GLP-1R G168^1.63S = settings: cited from earlier work
Description: (§1) Previous in vivo characterizations of missense variants in the GLP-1R and GIPR have pointed to associations between receptor impairments and clinical phenotypes. One example is the more frequently occurring variant of GIPR E354^6.53Q (gnomAD MAF: 0.2). […] Heterozygous carriers of the rare missense variant T14 ...

GLP-1R T149^1.44M = settings: cited from earlier work
Description: as §1

[1] = tested on: GLP-1R variants P7^ECDL, R44^ECDH and L260^ICL2P; settings: cited from earlier work
Description: as §1

[2] = target: human glucagon receptor missense variant R225^3.30H (human) (UniProt P47871)
Sequence of UniProt P47871 (P47871 other isoform, or with tags, fused parts or gaps mutant): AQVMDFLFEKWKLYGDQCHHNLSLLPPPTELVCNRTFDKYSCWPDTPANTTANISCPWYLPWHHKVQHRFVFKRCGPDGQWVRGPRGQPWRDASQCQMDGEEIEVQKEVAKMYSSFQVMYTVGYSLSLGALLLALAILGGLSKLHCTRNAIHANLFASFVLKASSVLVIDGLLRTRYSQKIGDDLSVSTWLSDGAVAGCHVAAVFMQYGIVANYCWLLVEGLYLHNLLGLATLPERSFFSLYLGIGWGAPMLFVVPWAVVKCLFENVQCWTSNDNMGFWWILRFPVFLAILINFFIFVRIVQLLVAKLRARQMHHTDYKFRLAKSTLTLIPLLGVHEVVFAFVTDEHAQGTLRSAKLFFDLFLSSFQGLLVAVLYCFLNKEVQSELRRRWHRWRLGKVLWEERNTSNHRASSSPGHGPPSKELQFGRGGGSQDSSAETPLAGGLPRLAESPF

[3] = tested on: patients with type 2 diabetes, GLP-1R G168^1.63S carriers; settings: cited from earlier work
Description: as §1

**Q.** What does the source list for glucagon-like peptide-1 [GLP-1]?
**A.** receptor signaling and binding affinity of GLP-1 (GLP-1R G168^1.63S): preserved receptor signaling and binding affinity; binding capacity of GLP-1 (GLP-1R T149^1.44M): lower binding capacity; receptor signaling (GLP-1R T149^1.44M): impaired receptor signaling capabilities; GLP-1 binding and receptor signaling [1]: wildtype-like GLP-1 binding and receptor signaling

**Q.** Which potency (EC50) of glucagon in β-arrestin-2 recruitment, BRET in HEK293, fold decrease against wildtype [2] does the source give for “β-arrestin-2 (Rluc8-Arr3-Sp2) (from UniProt P32121 1-409) (natural protein)” here?
**A.** Its potency (EC50) of glucagon in β-arrestin-2 recruitment, BRET in HEK293, fold decrease against wildtype is 6 fold.

**Q.** With “liraglutide: treatment with liraglutide of patients with type 2 diabetes (HAEGTFTSDVSSYLEGQAAKEFIAWLVRGRG; chains of the INN, looked up)” as the substance, how does the “weight loss and fat mass” value [3] read?
**A.** Its value is “improved weight loss and lower fat mass”.
